Experimental data: patent US20240400521A1, “QUINAZOLINE COMPOUND, COMPOSITION, AND APPLICATION THEREOF” (BEIJING SCITECH-MQ PHARMACEUTICALS LIMITED, priority 2021, published 2024)

Experiments:
[1] = biological target: T1, EGFR^WT kinase (Homo sapiens, UniProt P00533); test: EGFR^WT kinase assay (ULight peptide / Eu-PT66 antibody detection); assay type: biochemical
T1 construct: purchased Carna Biosciences 08-115
Excerpt: Reagents and consumables: ULight™-labeled Ploy GT Peptide (Perkin Elmer, Cat. No. TRF-0100-M); ULight™-labeled JAK-1 (Try1023) Peptide (Perkin Elmer, Cat. No. TRF-0121-M); Eu-W1024-labeled Anti-Phosphotyrosine Antibody (PT66) (Perkin Elmer, Cat. No. AD0068); 10×Detection Buffer (Perkin Elmer, Cat. No. CR97-100); HER2 Kinase (Carna Biosciences, Cat. No. 08-016); EGFR kinase (Carna Biosciences, Cat. No. 08-115); HEPES (GIBCO, Cat. No. 15630-080); EGTA (Sigma, Cat. No. 03777-10G); EDTA (Sigma, Cat. No. EDS-100G); MgCl2 (Sigma, Cat. No. 63069-100ML); DTT (Sigma, Cat. No. 43816-10ML); Tween-20 (Sigma, Cat. No. P7949-100ML); DMSO (Life Science, Cat. No. 0231-500ML); 384-well plates (Perkin Elmer, Cat. No. 607290); multifunctional plate reader (Perkin Elmer, Cat. No. Envision)
Preparation of compound solution: The assay compound was dissolved in DMSO to form a 10 mM stock solution. Prior to use, the compound was diluted to 0.25 mM in DMSO (100 times the final concentration of the diluent) and then subjected to a 3-fold concentration gradient dilution to obtain a total of 11 concentrations. The solution was diluted with buffer to a diluent with 4× the final concentration when the drug was added.
EGFR^WT kinase assay: buffer was prepared, and 3.48 nM 4× EGFR kinase solution, 600 μM 4× ATP solution, and 400 nM 4×ULight™-labeled JAK-1 (Try1023) Peptide substrate solution was prepared using the buffer. After the preparation was completed, the enzyme was mixed with different concentrations of compounds pre-prepared by dilution, and the mixture was left to stand at room temperature for 5 min. Each concentration was performed in duplicate. The corresponding substrate and ATP were added and the mixture was reacted at room temperature for 120 minutes (with negative and positive controls). After completion of the reaction, PT66 detection antibody was added. The mixture was incubated at room temperature for 60 minutes, and then detected by Envision.
Data Calculation: the reading of well and inhibition rate were calculated using Excel, wherein reading of well=10000*(well EU665 value)/(well EU615 value), and inhibition rate=[(reading of positive control well−reading of assay well)/(reading of positive control well−reading of negative control well)]*100%. Compound concentrations and corresponding inhibition rates were input into GraphPad Prism for processing to calculate IC50 values.

[2] = biological target: Ba/F3 EGFR D770_N771insSVD cells (Homo sapiens, UniProt P00533, DUP768-770, cells depend on it); test: Inhibition of cell proliferation, CTG method, Ba/F3 EGFR D770_N771insSVD; assay type: cell-based; conditions: 72 hours, read-out: Ba/F3 EGFR D770_N771insSVD IC50
Sequence of Ba/F3 EGFR D770_N771insSVD cells (P00533 with tags, fused parts or gaps DUP768-770): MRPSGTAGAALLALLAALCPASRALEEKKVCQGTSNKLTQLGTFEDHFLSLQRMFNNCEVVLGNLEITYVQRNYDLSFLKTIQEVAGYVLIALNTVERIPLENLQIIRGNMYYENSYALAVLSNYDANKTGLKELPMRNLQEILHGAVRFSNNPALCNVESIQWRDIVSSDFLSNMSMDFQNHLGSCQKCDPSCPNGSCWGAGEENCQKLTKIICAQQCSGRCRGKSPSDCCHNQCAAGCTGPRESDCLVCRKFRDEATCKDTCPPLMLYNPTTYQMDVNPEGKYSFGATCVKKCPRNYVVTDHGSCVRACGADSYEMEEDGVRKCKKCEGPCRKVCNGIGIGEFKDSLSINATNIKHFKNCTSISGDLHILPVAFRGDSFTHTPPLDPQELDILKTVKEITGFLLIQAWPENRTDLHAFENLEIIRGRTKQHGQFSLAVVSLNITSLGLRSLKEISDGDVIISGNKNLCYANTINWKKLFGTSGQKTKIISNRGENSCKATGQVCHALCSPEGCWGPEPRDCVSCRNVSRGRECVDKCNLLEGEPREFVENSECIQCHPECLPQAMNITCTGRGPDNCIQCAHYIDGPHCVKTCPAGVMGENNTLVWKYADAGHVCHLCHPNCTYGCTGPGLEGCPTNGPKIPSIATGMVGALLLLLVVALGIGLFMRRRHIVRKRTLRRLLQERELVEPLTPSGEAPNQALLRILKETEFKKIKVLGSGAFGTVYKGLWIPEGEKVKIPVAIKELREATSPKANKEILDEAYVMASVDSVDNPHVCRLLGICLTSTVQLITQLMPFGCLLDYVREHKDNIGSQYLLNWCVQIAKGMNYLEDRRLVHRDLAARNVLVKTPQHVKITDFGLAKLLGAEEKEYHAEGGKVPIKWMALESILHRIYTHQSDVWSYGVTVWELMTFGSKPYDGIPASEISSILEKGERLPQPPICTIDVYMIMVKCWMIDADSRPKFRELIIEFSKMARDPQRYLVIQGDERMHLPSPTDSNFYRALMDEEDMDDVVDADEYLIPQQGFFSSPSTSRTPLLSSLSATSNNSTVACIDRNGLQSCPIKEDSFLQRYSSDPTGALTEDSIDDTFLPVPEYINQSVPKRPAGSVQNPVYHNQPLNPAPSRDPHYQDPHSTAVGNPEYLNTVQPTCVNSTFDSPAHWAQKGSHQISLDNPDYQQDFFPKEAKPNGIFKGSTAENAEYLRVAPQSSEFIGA
Excerpt: (§1) The present application examined the in vitro anti-proliferative activity of the compounds of the present disclosure against in vitro cultured HCC-827, Ba/F3-EGFR-VIII and Ba/F3 EGFR D770_N771insSVD cell lines by CTG method.
(§2) Reagents and consumables: RPMI1640 (ThermoFisher, Cat. No. C11875500BT); DMEM (ThermoFisher, C11995500BT); fetal bovine serum (Hyclone, Cat. No. SV30087.03); 0.25% trypsin-EDTA (ThermoFisher, Cat. No. 25200072); penicillin-streptomycin (Hyclone, Cat. No. SV30010); DMSO (Life Science, Cat. No. 0231-500ML); CTG assay kit (Promega, Cat. No. G9243); 96-well plate (Corning, Cat. No. 3599); multifunctional plate reader (Perkin Elmer, Cat. No. Envision)
(§3) Cell lines: HCC-827 (from ATCC), Ba/F3-EGFR-VIII and Ba/F3 EGFR D770_N771insSVD (all from KYinno Biotechnology (Beijing) Co., Ltd.); all of the above cells were cultured with RPMI1640 medium containing 10% fetal bovine serum, 100 U/mL penicillin, and 100 μg/mL streptomycin in the culture process, and HCC-827 was cultured with DMEM medium containing 10% fetal bovine serum, 100 U/mL penicillin, and 100 μg/mL streptomycin.
(§4) • 1. The assay compound was dissolved with DMSO to form a stock solution and a gradient dilution was performed, followed by dilution with the corresponding medium to obtain a solution with 5-fold working concentration. • 2. Cells in logarithmic growth phase were adjusted to specific cell densities by dilution with culture medium, and 80 μL of cell suspension was added to a 96-well plate, such that plating densities of cells of HCC-827, Ba/F3-EGFR-VIII and Ba/F3 EGFR D770_N771insSVD were all 3000 cells/well. The cells of Ba/F3-EGFR-VIII and Ba/F3 EGFR D770_N771insSVD were used directly in the next step (treatment with compound), whereas the HCC-827 needed to be cultured overnight in a 37° C., 5% carbon dioxide gas incubator to adhere to the wall, and then treated with compounds. • 3. 20 μL of compound solution was added to each well of the 96-well plate that had been inoculated with cells. The highest concentration of the assayed compound was 10 μM, 4-fold serial dilution, a total of 9 concentrations, and duplicate wells. A control group without compound was also set up. • 4. The cells were cultured for another 72 hours, and then cell viability was detected by CTG assay kit. Signal values were read with a multifunctional plate reader (Perkin Elmer). GraphPad Prism software was used to create a dose-response curve and IC50 was calculated.

[3] = biological target: Ba/F3-EGFR-VIII cells (Homo sapiens, UniProt P00533, DELINS30-297G, cells depend on it); test: Inhibition of cell proliferation, CTG method, Ba/F3-EGFR-VIII; assay type: cell-based; conditions: 72 hours, read-out: Ba/F3 EGFRvIII IC50
Sequence of Ba/F3-EGFR-VIII cells (P00533 with tags, fused parts or gaps DELINS30-297G): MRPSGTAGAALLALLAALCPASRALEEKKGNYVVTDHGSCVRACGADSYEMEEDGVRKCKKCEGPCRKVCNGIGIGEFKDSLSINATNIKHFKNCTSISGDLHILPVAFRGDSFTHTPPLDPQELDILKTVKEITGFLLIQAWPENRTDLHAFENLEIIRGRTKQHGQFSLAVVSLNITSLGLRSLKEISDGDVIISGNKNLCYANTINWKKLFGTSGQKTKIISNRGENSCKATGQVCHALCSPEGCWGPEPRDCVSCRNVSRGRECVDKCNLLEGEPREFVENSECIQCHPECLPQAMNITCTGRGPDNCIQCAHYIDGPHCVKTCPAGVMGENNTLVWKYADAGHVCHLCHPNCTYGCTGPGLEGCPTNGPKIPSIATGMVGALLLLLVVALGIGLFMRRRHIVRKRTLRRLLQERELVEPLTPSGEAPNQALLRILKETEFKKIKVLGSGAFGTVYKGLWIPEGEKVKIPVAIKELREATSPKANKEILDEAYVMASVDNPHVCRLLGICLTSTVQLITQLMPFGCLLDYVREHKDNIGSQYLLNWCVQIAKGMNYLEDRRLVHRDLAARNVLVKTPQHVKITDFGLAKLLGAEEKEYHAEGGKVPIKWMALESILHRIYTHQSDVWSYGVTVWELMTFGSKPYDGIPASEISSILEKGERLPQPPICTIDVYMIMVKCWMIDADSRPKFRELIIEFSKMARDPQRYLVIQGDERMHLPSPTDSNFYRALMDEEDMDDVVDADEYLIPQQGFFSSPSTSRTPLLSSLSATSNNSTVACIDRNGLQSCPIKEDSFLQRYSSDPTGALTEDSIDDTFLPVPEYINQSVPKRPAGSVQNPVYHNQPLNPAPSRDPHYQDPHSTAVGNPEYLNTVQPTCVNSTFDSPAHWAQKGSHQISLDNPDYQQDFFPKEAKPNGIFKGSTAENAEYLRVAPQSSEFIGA
Excerpt: as §1, §2, §3, §4

T1 sequence (P00533 25-1210): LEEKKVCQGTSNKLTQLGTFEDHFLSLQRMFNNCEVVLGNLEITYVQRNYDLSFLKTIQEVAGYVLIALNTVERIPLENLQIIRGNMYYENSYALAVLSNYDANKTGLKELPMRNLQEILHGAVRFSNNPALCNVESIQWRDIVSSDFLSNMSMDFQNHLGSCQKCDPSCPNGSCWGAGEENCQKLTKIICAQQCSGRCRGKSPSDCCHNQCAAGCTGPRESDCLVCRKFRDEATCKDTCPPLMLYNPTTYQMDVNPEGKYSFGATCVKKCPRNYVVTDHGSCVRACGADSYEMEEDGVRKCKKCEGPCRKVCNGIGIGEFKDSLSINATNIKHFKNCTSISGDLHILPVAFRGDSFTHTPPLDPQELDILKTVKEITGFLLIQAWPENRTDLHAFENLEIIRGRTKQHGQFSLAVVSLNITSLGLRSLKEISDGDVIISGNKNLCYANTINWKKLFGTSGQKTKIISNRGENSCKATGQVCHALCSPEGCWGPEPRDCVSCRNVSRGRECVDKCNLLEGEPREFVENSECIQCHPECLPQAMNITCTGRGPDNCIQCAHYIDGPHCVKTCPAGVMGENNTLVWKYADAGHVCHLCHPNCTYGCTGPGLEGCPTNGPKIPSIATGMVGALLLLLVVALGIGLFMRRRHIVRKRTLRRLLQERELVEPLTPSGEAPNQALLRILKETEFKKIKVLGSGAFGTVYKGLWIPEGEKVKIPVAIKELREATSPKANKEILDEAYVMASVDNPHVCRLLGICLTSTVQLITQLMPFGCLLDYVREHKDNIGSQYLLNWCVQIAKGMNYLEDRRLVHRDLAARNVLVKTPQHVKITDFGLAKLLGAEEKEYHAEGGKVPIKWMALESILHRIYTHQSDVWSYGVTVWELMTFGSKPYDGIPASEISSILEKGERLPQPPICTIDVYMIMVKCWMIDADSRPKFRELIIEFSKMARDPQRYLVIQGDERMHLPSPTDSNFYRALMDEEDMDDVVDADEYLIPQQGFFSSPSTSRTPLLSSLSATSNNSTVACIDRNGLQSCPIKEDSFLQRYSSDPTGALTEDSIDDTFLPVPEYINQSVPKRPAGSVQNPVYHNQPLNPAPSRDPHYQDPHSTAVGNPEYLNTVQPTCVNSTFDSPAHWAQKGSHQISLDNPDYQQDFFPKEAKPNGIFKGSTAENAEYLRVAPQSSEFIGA

- IC50 [1]: ≤ 1 nM
- GI50 [2]: 50 to 500 nM
- GI50 [3]: ≤ 5 nM
SMILES: COc1c(NC(=O)/C=C/CN(C)C)ccc2ncnc(Nc3cccc(Cl)c3F)c12 [Example 1, (E)-N-(4-((3-chloro-2-fluorophenyl)amino)-5-methoxyquinazolin-6-yl)-4-(dimethylamino)but-2-enamide]
